Experimental data taken from PMC12720774, “Detergents alter the stability and lipid binding properties of the CD1d immunoreceptor” (Protein Science : A Publication of the Protein Society, 2025).
“And” between values parts separate entries of the source, which are not always exact repeats. Equal entries are not always repeated.

Tests used:
[1] = biological target: T1, CSP 319‐328/HLA‐B*08:01/hβ2M complex (Homo sapiens, UniProt P01889, A93T/A95T/D138N/E176V/E187T/K202T/Q94N/R180D/S35A/V36M/Y33D/Y91F); test: nanoDSF with peptide/HLA complex; format: binding; details: for ΔT m (nanoDSF), peptide/HLA: absence vs maximum concentration of detergent, 1 μM peptide/HLA; for nanoDSF melting temperature of peptide/HLA: replicates
T1 construct: made in house
From the text: To determine whether detergent effects were specific to hCD1d, we performed analogous ITF, MST, and nanoDSF experiments with a peptide/HLA complex. HLA‐B*08:01, presenting the Plasmodium falciparum derived peptide […] ([…]), was selected as a representative model system since the peptide antigen contains hydrophilic solvent‐exposed residues in the antigen‐binding groove (Frooman et al., [2025]). Although structurally similar to that of hCD1d, HLA‐B*08:01 shares low sequence identity (Figure S10a). […] By nanoDSF, ODG caused minimal destabilization of either complex (ΔT m≈−0.2 to −0.8°C; Figure S10f). […] We posit that lipid‐specific unloading effects of detergent are due to either hydrophobic residues in the antigen binding groove (detergent‐CD1d interactions) and/or the hydrophobic nature of the lipid antigen (detergent‐lipid interactions).
For comparison with peptide/HLA molecules, we prepared recombinant CSP 319‐328/HLA‐B*08:01/hβ2M complex using in vitro refolding methods fully described previously (Frooman et al., [2025]). The peptide sequence for CSP 319–328 is […]. This peptide was chosen since it contains Lys, Gln, and Asp residues predicted to be solvent‐exposed in the HLA‐B*08:01 binding groove (Frooman et al., [2025]).
NanoDSF experiments with peptide/HLA molecules and detergents were performed using an analogous protocol.

[2] = biological target: hCD1d (Homo sapiens, UniProt P15813+P61769); test: Detergent competition with 18:1 LPC binding to hCD1d (ITF, MST, nanoDSF); parameters: TEV protease cleavage site ENLYFQS (C); BirA biotinylation site (C); His7 (C); made in house; host or cells: TurboCHO cells (GenScript); details: 0.05% detergent
Description: We selected 18:1 LPC for the competition experiments since, first, a structure with hCD1d has been well characterized, and second, it binds hCD1d with moderate micromolar affinity, which is representative of many endogenous lipid antigens (Cantu et al., [2003]; López‐Sagaseta et al., [2012]). In the absence of detergent, 18:1 LPC produced concentration‐dependent changes in ITF and MST signal and decreased the melting temperature of hCD1d (ΔT m = −8.1 ± 1.7°C), indicative of specific binding and hCD1d destabilization (Figure 7c–e).
ITF spectra were recorded from 300 to 500 nm using a Horiba FL3‐21 Fluorometer with the excitation wavelength of 285 nm and excitation/emission slits of 6.2 nm. Fluorescence spectra of 50 to 100 nM hCD1d were acquired in the absence and presence of detergents in 1X PBS pH 7.4 at 25°C. Prior to data acquisition, hCD1d and detergent or lipid samples were incubated at 37°C overnight (~12 h) to simulate in vitro and in vivo loading conditions. […] For 18:1 LPC experiments, fluorescence spectra of 100 nM hCD1d were acquired in the absence and presence of 18:1 LPC in 1X PBS pH 7.4 at 25°C. […] For all ITF experiments, the change in fluorescence signal (F − F 0/F 0) was determined at 335 nm. Three replicates were performed, and data are presented as the mean ± standard deviation (n = 3). K D values were fitted with non‐linear regression in GraphPad Prism v10.1. […]

Sequence of hCD1d (P61769+P15813 fused): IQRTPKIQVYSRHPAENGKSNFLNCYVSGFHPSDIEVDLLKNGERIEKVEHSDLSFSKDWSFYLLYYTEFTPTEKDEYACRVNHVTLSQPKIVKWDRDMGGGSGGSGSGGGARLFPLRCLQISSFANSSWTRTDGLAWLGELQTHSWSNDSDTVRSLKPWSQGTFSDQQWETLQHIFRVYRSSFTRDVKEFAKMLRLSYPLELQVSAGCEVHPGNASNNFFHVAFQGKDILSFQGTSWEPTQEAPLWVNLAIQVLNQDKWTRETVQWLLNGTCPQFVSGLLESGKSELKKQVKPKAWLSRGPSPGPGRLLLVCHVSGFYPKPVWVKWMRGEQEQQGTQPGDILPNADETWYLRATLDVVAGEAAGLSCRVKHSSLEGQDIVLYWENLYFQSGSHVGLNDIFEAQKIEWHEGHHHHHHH

CCCCCCCCO[C@@H]1O[C@H](CO)[C@@H](O)[C@H](O)[C@H]1O [ODG, n‐octyl‐β‐D‐glucopyranoside]
ΔT m (nanoDSF), peptide/HLA [1]: −0.2 to −0.8 °C
nanoDSF melting temperature of peptide/HLA ([1]; peptide/HLA with ODG, concentration 1.495 (unit not given)): 55.47 and 55.54 and 54.62
nanoDSF melting temperature of peptide/HLA ([1]; peptide/HLA with ODG, concentration 2.991 (unit not given)): 55.33 and 55.34 and 55.32
nanoDSF melting temperature of peptide/HLA ([1]; peptide/HLA with ODG, concentration 5.981 (unit not given)): 55.24 and 55.48 and 55.35
nanoDSF melting temperature of peptide/HLA ([1]; peptide/HLA with ODG, concentration 11.96 (unit not given)): 55.41 and 55.18 and 55.09
nanoDSF melting temperature of peptide/HLA ([1]; peptide/HLA with ODG, concentration 23.93 (unit not given)): 55.51 and 54.95 and 55.4
nanoDSF melting temperature of peptide/HLA ([1]; peptide/HLA with ODG, concentration 47.85 (unit not given)): 55.44 and 54.77 and 55.24
nanoDSF melting temperature of peptide/HLA ([1]; peptide/HLA with ODG, concentration 95.7 (unit not given)): 55.2 and 55.36 and 55.21
nanoDSF melting temperature of peptide/HLA ([1]; peptide/HLA with ODG, concentration 191.4 (unit not given)): 55.5 and 55.26 and 55.22
nanoDSF melting temperature of peptide/HLA ([1]; peptide/HLA with ODG, concentration 382.8 (unit not given)): 55.54 and 55.43 and 55.19
nanoDSF melting temperature of peptide/HLA ([1]; peptide/HLA with ODG, concentration 765.6 (unit not given)): 55.29 and 55.05 and 54.95
nanoDSF melting temperature of peptide/HLA ([1]; peptide/HLA with ODG, concentration 1531 (unit not given)): 55.13 and 55.03 and 54.92
nanoDSF melting temperature of peptide/HLA ([1]; peptide/HLA with ODG, concentration 3063 (unit not given)): 54.91 and 54.34 and 54.94
nanoDSF melting temperature of peptide/HLA ([1]; peptide/HLA with ODG, concentration 6125 (unit not given)): 53.87 and 53.91
nanoDSF melting temperature of peptide/HLA ([1]; peptide/HLA with ODG, concentration 12500 (unit not given)): 51.99 and 52.51 and 52.34
nanoDSF melting temperature of peptide/HLA ([1]; peptide/HLA with ODG, concentration 25000 (unit not given)): 50.57 and 50.47 and 50.7
nanoDSF melting temperature of peptide/HLA ([1]; peptide/HLA with ODG, concentration 50000 (unit not given)): 50.26 and 49.92 and 50.62

C[C@H](CCC(=O)NCCC[N+](C)(C)CCCS(=O)(=O)[O-])[C@H]1CC[C@H]2[C@@H]3[C@H](O)C[C@@H]4C[C@H](O)CC[C@]4(C)[C@H]3C[C@H](O)[C@]12C [CHAPS, 3‐((3‐cholamidopropyl) dimethylammonio)‐1‐propanesulfonate]
effect of detergent on 18:1 LPC binding to hCD1d (in words) [2]: did not robustly outcompete binding

Tween 20
ΔT m (nanoDSF), peptide/HLA [1]: ≈ −0.3 °C
nanoDSF melting temperature of peptide/HLA ([1]; peptide/HLA with Tween 20, concentration 0.030518 (unit not given)): 55.19 and 55.32 and 55.37
nanoDSF melting temperature of peptide/HLA ([1]; peptide/HLA with Tween 20, concentration 0.061035 (unit not given)): 55.29 and 55.45 and 55.24
nanoDSF melting temperature of peptide/HLA ([1]; peptide/HLA with Tween 20, concentration 0.12207 (unit not given)): 55.51 and 55.26 and 55.3
nanoDSF melting temperature of peptide/HLA ([1]; peptide/HLA with Tween 20, concentration 0.244141 (unit not given)): 55.15 and 55.36 and 55.47
nanoDSF melting temperature of peptide/HLA ([1]; peptide/HLA with Tween 20, concentration 0.488281 (unit not given)): 55.37 and 55.28 and 55.18
nanoDSF melting temperature of peptide/HLA ([1]; peptide/HLA with Tween 20, concentration 0.976563 (unit not given)): 55.33 and 55.35 and 55.37
nanoDSF melting temperature of peptide/HLA ([1]; peptide/HLA with Tween 20, concentration 1.95312 (unit not given)): 55.37 and 55.15
nanoDSF melting temperature of peptide/HLA ([1]; peptide/HLA with Tween 20, concentration 3.90625 (unit not given)): 55.29 and 55.17 and 55.23
nanoDSF melting temperature of peptide/HLA ([1]; peptide/HLA with Tween 20, concentration 7.8125 (unit not given)): 55.43 and 55.31 and 55.36
nanoDSF melting temperature of peptide/HLA ([1]; peptide/HLA with Tween 20, concentration 15.625 (unit not given)): 55.24 and 55.22 and 55.41
nanoDSF melting temperature of peptide/HLA ([1]; peptide/HLA with Tween 20, concentration 31.25 (unit not given)): 55.63 and 55.25 and 55.23
nanoDSF melting temperature of peptide/HLA ([1]; peptide/HLA with Tween 20, concentration 62.5 (unit not given)): 55.32 and 55.31 and 55.25
nanoDSF melting temperature of peptide/HLA ([1]; peptide/HLA with Tween 20, concentration 125 (unit not given)): 55.13 and 55.18 and 55.19
nanoDSF melting temperature of peptide/HLA ([1]; peptide/HLA with Tween 20, concentration 250 (unit not given)): 55.22 and 55.06 and 55.24
nanoDSF melting temperature of peptide/HLA ([1]; peptide/HLA with Tween 20, concentration 500 (unit not given)): 54.35 and 55.14 and 54.93
nanoDSF melting temperature of peptide/HLA ([1]; peptide/HLA with Tween 20, concentration 1000 (unit not given)): 55.13 and 54.89 and 54.93
effect of detergent on 18:1 LPC binding to hCD1d (in words) [2]: abolished nearly all detectable binding signals
